Assay results: BindingDB's records for patent US20240293587 (Technische University Munchen, 2024)
Starred links: 1 amine or outer side, 2 acyl side, 3 side chain; linkers in the order of their positions; H or OH if unused. Non-standard residues stand in square brackets, D forms with d. Residues, ends and D or L forms follow the SMILES beside them. Groups on a side chain read outwards from the residue. *: point of attachment. dAla(N-(6-guanidinohexyl)) = C[C@@H](NCCCCCCNC(=N)N)C(=O)O; X1 = C[C@H](C(=O)[*:2])N(CCCCCCNC(=N)NCCCCCCN[*:3])[*:1]; Propanoyl(3-PO3H2) = O=C(CCP(=O)(O)O)*; 2Nal = N[C@@H](Cc1ccc2ccccc2c1)C(=O)O; AEEA = NCCOCCOCC(=O)O; Ahx = NCCCCCC(=O)O

Molecular target: C-X-C chemokine receptor type 4 (Mus musculus, UniProt P70658)
Sequence (P70658 whole entry): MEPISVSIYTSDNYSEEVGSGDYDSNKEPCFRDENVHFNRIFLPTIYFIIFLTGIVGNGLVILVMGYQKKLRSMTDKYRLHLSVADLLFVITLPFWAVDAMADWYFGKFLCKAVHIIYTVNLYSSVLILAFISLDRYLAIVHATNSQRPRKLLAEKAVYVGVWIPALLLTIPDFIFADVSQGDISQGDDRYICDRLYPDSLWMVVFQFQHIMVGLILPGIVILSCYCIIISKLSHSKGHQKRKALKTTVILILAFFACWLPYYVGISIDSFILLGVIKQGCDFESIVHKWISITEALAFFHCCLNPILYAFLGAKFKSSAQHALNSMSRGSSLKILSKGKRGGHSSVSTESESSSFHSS
Assay: Competition Binding Assay
Protocol: (§1) For IC50 determination using Jurkat or Eμ-Myc1080 cells, samples containing 2×10^5 cells (or 4×10^5 cells; exact cell number used in the respective evaluations is given in the results section) in Hank's balanced salt solution (HBSS)/1% Bovine Serum Albumin (BSA) were incubated with 100.000 cpm of the respective radioligand (approx. 0.1 nM) in the presence of increasing concentrations (10−11 to 10−5 M) of the respective peptide of interest (n=3 per concentration). The total sample volume was 250 μL. After incubation at room temperature (RT) for 120 min with gentle agitation (200 mot/min), the tubes were centrifuged (5 min, 450g, Megafuge 1.0, Heraeus Thermo Scientific) and the supernatant was carefully removed. After washing twice with 400 μL of cold HBSS, the amount of cell-bound radioligand was quantified using a […]-counter.[0403]In the case of the adherent C6 glioma cells, cells were harvested using Trypsin/EDTA (0.05 % and 0.02%) in PBS one day prior to the experiment, centrifuged and resuspended with culture medium to a concentration of app. 150.000 cells/mL. The suspension was transferred into PLL-coated twenty-four-well plates (1 mL/well, Greiner, Solingen. Germany) and placed in the incubator overnight. On the day of the experiment, the culture medium was removed and the cells were washed with 250 μL of HBSS before being left to equilibrate in 200 μL of HBSS (1% BSA) at 37° C. for a minimum of 15 min before the experiment. Then, cells were incubated with 100.000 cpm of the respective radioligand (approx. 0.1 nM) in the presence of increasing concentrations (10−11 to 10−5 M) of the respective compound of interest (n=3 per concentration). The total sample volume was 250 μL. After incubation at room temperature (RT) for 120 min, the supernatant was removed and cells were washed twice with 200 μL of cold HBSS. Then, cells were lysed using 250 μL of 1 N NaOH, the lysate was transferred to vials and combined with 250 μL of HBSS used for rinsing the wells. Quantification of the amount of free and bound activity was performed in a […]-counter.

| IC50 | SMILES |
| --- | --- |
| 1.6 nM | CC(=O)NC(=N)NCCCCCCN1C(=O)[C@@H](Cc2ccc(O)cc2)NC(=O)CNC(=O)[C@H](Cc2ccc3ccccc3c2)NC(=O)[C@H](CCCNC(=N)N)NC(=O)[C@H]1C [US20240293587, Compound P7] |
| 6.2 nM | C#CCCCCNC(=N)NCCCCCCN1C(=O)[C@@H](Cc2ccc(O)cc2)NC(=O)CNC(=O)[C@H](Cc2ccc3ccccc3c2)NC(=O)[C@H](CCCNC(=N)N)NC(=O)[C@H]1C [US20240293587, Compound P6] |
| 5.5 nM | C#CCCC(=O)NC(=N)NCCCCCCN1C(=O)[C@@H](Cc2ccc(O)cc2)NC(=O)CNC(=O)[C@H](Cc2ccc3ccccc3c2)NC(=O)[C@H](CCCNC(=N)N)NC(=O)[C@H]1C [US20240293587, Compound P10] |

Molecular target: C-X-C chemokine receptor type 4 (Homo sapiens, UniProt P61073)
Sequence (P61073 whole entry): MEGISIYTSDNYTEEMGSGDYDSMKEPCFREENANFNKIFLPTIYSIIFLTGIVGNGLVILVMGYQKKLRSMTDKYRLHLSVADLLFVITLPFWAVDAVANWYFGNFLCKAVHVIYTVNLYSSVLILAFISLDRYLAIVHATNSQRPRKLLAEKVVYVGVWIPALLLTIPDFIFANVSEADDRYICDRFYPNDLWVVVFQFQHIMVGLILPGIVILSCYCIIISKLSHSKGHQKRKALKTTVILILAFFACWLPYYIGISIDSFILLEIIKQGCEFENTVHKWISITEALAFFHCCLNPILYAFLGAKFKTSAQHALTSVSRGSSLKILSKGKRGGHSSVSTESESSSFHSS
Assay: Competition Binding Assay
Protocol: as §1

| IC50 | SMILES |
| --- | --- |
| 78.7 nM | CC(=O)NCCCCCC(=O)NC(=N)NCCCCCCN1C(=O)[C@@H](Cc2ccc(O)cc2)NC(=O)CNC(=O)[C@H](Cc2ccc3ccccc3c2)NC(=O)[C@H](CCCNC(=N)N)NC(=O)[C@H]1C [US20240293587, Compound P9] |
| 2.5 nM | CC(=O)NC(=N)NCCCCCCN1C(=O)[C@@H](Cc2ccc(O)cc2)NC(=O)CNC(=O)[C@H](Cc2ccc3ccccc3c2)NC(=O)[C@H](CCCNC(=N)N)NC(=O)[C@H]1C [US20240293587, Compound P7] |
| 3.2 nM | C#CCCCCNC(=N)NCCCCCCN1C(=O)[C@@H](Cc2ccc(O)cc2)NC(=O)CNC(=O)[C@H](Cc2ccc3ccccc3c2)NC(=O)[C@H](CCCNC(=N)N)NC(=O)[C@H]1C [US20240293587, Compound P6] |
| 1.7 nM | CC(=O)NCCCNC(=N)NCCCCCCN1C(=O)[C@@H](Cc2ccc(O)cc2)NC(=O)CNC(=O)[C@H](Cc2ccc3ccccc3c2)NC(=O)[C@H](CCCNC(=N)N)NC(=O)[C@H]1C [US20240293587, Compound P2] |
| 9.8 nM | CC(=O)NCCCCCCNC(=N)NCCCCCCN1C(=O)[C@@H](Cc2ccc(O)cc2)NC(=O)CNC(=O)[C@H](Cc2ccc3ccccc3c2)NC(=O)[C@H](CCCNC(=N)N)NC(=O)[C@H]1C [US20240293587, Compound P5] |
| 78 nM | C[C@@H]1C(=O)N[C@@H](CCCNC(=N)N)C(=O)N[C@@H](Cc2ccc3ccccc3c2)C(=O)N[C@H](CSCC(=O)NCc2cccc(CNC(=O)CN3CCN(CC(=O)O)CCN(CC(=O)O)CCN(CC(=O)O)CC3)c2)C(=O)N[C@H](Cc2ccc(O)cc2)C(=O)N1CCCCCCNC(=N)N [US20240293587, Compound Pc5a] |
| 32.1 nM | CC(=O)NCCCCCNC(=N)NCCCCCCN1C(=O)[C@@H](Cc2ccc(O)cc2)NC(=O)CNC(=O)[C@H](Cc2ccc3ccccc3c2)NC(=O)[C@H](CCCNC(=N)N)NC(=O)[C@H]1C [US20240293587, Compound P4] |
| 57 nM | CC(=O)NCCCCCCNC(=O)CSC[C@H]1NC(=O)[C@H](Cc2ccc3ccccc3c2)NC(=O)[C@H](CCCNC(=N)N)NC(=O)[C@@H](C)N(CCCCCCNC(=N)N)C(=O)[C@@H](Cc2ccc(O)cc2)NC1=O [US20240293587, Compound Pc2] |
| > 400 nM | CC(=O)NCCCCCCSC[C@H]1NC(=O)[C@H](Cc2ccc3ccccc3c2)NC(=O)[C@H](CCCNC(=N)N)NC(=O)[C@@H](C)N(CCCCCCNC(=N)N)C(=O)[C@@H](Cc2ccc(O)cc2)NC1=O [US20240293587, Compound Pc3] |
| 61 nM | CC(=O)N[C@@H](CCCCNC(=O)CSC[C@H]1NC(=O)[C@H](Cc2ccc3ccccc3c2)NC(=O)[C@H](CCCNC(=N)N)NC(=O)[C@@H](C)N(CCCCCCNC(=N)N)C(=O)[C@@H](Cc2ccc(O)cc2)NC1=O)C(N)=O [US20240293587, Compound Pc1] |
| 13.2 nM | CC(=O)NCC(=O)NC(=N)NCCCCCCN1C(=O)[C@@H](Cc2ccc(O)cc2)NC(=O)CNC(=O)[C@H](Cc2ccc3ccccc3c2)NC(=O)[C@H](CCCNC(=N)N)NC(=O)[C@H]1C [US20240293587, Compound P8] |
| 0.8 nM | C[C@@H]1C(=O)N[C@@H](CCCNC(=N)N)C(=O)N[C@@H](Cc2ccc3ccccc3c2)C(=O)NCC(=O)N[C@H](Cc2ccc(O)cc2)C(=O)N1CCCCCCNC(=N)N [US20240293587, Compound R] (cyclo([dY][dAla(N-(6-guanidinohexyl))]R[2Nal]G)) |
| 3.1 nM | CC(=O)NCCNC(=N)NCCCCCCN1C(=O)[C@@H](Cc2ccc(O)cc2)NC(=O)CNC(=O)[C@H](Cc2ccc3ccccc3c2)NC(=O)[C@H](CCCNC(=N)N)NC(=O)[C@H]1C [US20240293587, Compound P1] |
| 2 nM | C#CCCC(=O)NC(=N)NCCCCCCN1C(=O)[C@@H](Cc2ccc(O)cc2)NC(=O)CNC(=O)[C@H](Cc2ccc3ccccc3c2)NC(=O)[C@H](CCCNC(=N)N)NC(=O)[C@H]1C [US20240293587, Compound P10] |

| SMILES | IC50 |
| --- | --- |
| C[C@@H]1C(=O)N[C@@H](CCCNC(=N)N)C(=O)N[C@@H](Cc2ccc3ccccc3c2)C(=O)NCC(=O)N[C@H](Cc2ccc(O)cc2)C(=O)N1CCCCCCNC(=N)NCCCCCCNC(=O)CCCCCNC(=O)CCCCCNC(=O)CCP(=O)(O)O [US20240293587, Compound P5k] (cyclo([2Nal]G[dY][X1]([Ahx-Ahx-Propanoyl(3-PO3H2)])R)) | 90 nM |
| C[C@@H]1C(=O)N[C@@H](CCCNC(=N)N)C(=O)N[C@@H](Cc2ccc3ccccc3c2)C(=O)NCC(=O)N[C@H](Cc2ccc(O)cc2)C(=O)N1CCCCCCNC(=N)NCCCCCCNC(=O)COCCOCCNC(=O)COCCOCCNC(=O)CCP(=O)(O)O [US20240293587, Compound P5m] (cyclo([2Nal]G[dY][X1]([AEEA-AEEA-Propanoyl(3-PO3H2)])R)) | 52 nM |
| CC(=O)NCc1cccc(CNC(=O)CSC[C@H]2NC(=O)[C@H](Cc3ccc4ccccc4c3)NC(=O)[C@H](CCCNC(=N)N)NC(=O)[C@@H](C)N(CCCCCCNC(=N)N)C(=O)[C@@H](Cc3ccc(O)cc3)NC2=O)c1 [US20240293587, Compound Pc5] | 14 nM |
| CC(=O)NCc1ccc(CNC(=O)CSC[C@H]2NC(=O)[C@H](Cc3ccc4ccccc4c3)NC(=O)[C@H](CCCNC(=N)N)NC(=O)[C@@H](C)N(CCCCCCNC(=N)N)C(=O)[C@@H](Cc3ccc(O)cc3)NC2=O)cc1 [US20240293587, Compound Pc4] | 53 nM |
